Experimental data reported in US11123355B2, “Antiviral benzyl-amine phosphodiamide compounds” (Merck Sharp & Dohme Corp., priority 2016, dated 2021).
Where two headings read alike, the source gives them in different places.

Legend:
[1] = Prodrug Stability Assay in Bio-Relevant Media (FaSSIF with Pancreatin); format: in vitro ADME; details: 0.5 mg/mL Pancreatin in FaSSIF, 37° C.; HPLC peak area of prodrug at 5 h divided by that at 0 h
Procedure: Prodrug Stability Assay in Bio-Relevant Media
The following assay was employed to evaluate the stability of the prodrugs in simulated gastrointestinal tract conditions. Preparation of fasted state simulated intestinal fluid (FaSSIF) using Phares SIF Powder was carried out according to protocols from Phare Drug Delivery AG (Baselland, Switzerland). For sample preparation, 10 μL stock solutions (10 mM) of prodrug substance in DMSO was added to 990 μL of 0.5 mg/mL Pancreatin solution (Fisher CAS #8049-47-6) in FaSSIF. Two samples were prepared for each compound. If the sample was a clear solution, it was directly analyzed by HPLC. If the sample was not clear, the sample was diluted with 100% MeCN, maintained at 37° C. and observed 5 h later. If the sample was clear, HPLC analysis was directly performed. If the sample was still not clear, the sample was diluted with 100% ACN and assayed by HPLC. All the samples were vortexed for 3 min and observed before injection. For the diluted samples, the area is multiplied by a dilution factor when the data is analyzed. The analysis was carried out with an Agilent 1100 series HPLC with autosampler. The column was a Poroshell 120 EC-C18, 4.6×50 mm, 2.7 μm. The flow rate was 1.8 mL/min, and the injection volume was 5 or 10 μL. UV detection was in the range 210-400 nm. The mobile phase consisted of solvent A (water plus 10 mM tetrabutylammonium bromide) and solvent B (acetonitrile) with a gradient of: 90% solvent A at 0 min, changing to 95% solvent B over 6 min, maintaining for 1.5 min, then reverting to 90% solvent A over 1.6 min. The HPLC peak area of the prodrug at 5 h was divided by the HPLC peak area of the prodrug at 0 h, to generate the % claimed parent ratio, which is summarized in Table 2 for gastrointestinal (GI) Tract stability.

HIV-1 (H9/IIB strain) = assay: Multiple Round HIV-1 Infection Assay (Viking Assay) in MT4-GFP cells; format: cell-based; details: inhibition of reproductive ratio R0
Summary of the method: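 MT-4 cells with tat/rev-dependent GFP reporter infected overnight with virus at MOI ~0.01, then incubated in RPMI with 10% or 50% normal human serum with 10-point 3-fold dilutions (typically 8.4 μM–0.42 nM final). Green cells counted at ~48 and ~72 h to give R0; IC50 from 4-parameter fit of R0 inhibition.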

[2] = Human immunodeficiency virus 1, MT4-GFP cells infected with HIV-1, 10% normal human serum, read-out: Viking, IC50 (10% NHS)
[3] = Human immunodeficiency virus 1, MT4-GFP cells infected with HIV-1, 50% normal human serum, read-out: Viking, IC50 (50% NHS)
[4] = MT4-GFP cells infected with HIV-1, 10% normal human serum, read-out: Viking, IC50 (10% NHS)
[5] = MT4-GFP cells infected with HIV-1, 50% normal human serum, read-out: Viking, IC50 (50% NHS)

Compound	GI Tract stability (%) [1]	IC50 (HIV-1 (H9/IIB strain); [2])	IC50 (HIV-1 (H9/IIB strain); [3])	IC50 (HIV-1 (H9/IIB strain); [4])	IC50 (HIV-1 (H9/IIB strain); [5])
CCCOC(=O)C(C)(C)NP(=O)(CO[C@H](C)Cn1cnc2c(N)ncnc21)N[C@H](C)c1ccc(Cl)cc1 (single isomer, unassigned) [Example 1B]	98.7%	4.7 nM	36 nM		
CCCOC(=O)C(C)(C)NP(=O)(CO[C@H](C)Cn1cnc2c(N)ncnc21)N[C@H](C)c1ccc(OC(F)(F)F)cc1 (single isomer, unassigned) [Example 3B]	99.4%	1.8 nM	8.6 nM		
CCCOC(=O)C(C)(C)NP(=O)(CO[C@H](C)Cn1cnc2c(N)ncnc21)N[C@H](c1ccc(OC(F)(F)F)cc1)C(F)(F)F (some centres unmarked) [Example 4A]	95.8%			3.5 nM	29 nM
CCCOC(=O)C(C)(C)N[P@@](=O)(CO[C@H](C)Cn1cnc2c(N)ncnc21)NCc1ccc(OC(F)(F)F)cc1 [Example 7A, propyl 2-(((R)-((((R)-1-(6-amino-9H-purin-9-yl)propan-2-yl)oxy)methyl)((4-(trifluoromethoxy)benzyl)amino)phos-phoryl)amino)-2-methylpropanoate and propyl 2-(((S)-((((R)-1-(6-amino-9H-purin-9-yl)propan-2-yl)oxy)methyl)((4-(trifluoromethoxy)benzyl)amino)phos-phoryl)amino)-2-methylpropanoate]	96.0%			4.5 nM	27 nM
CCCOC(=O)C(C)(C)N[P@@](=O)(CO[C@H](C)Cn1cnc2c(N)ncnc21)N[C@H](C)c1cccc(F)c1 [Example 9B, propyl 2-(((R)-((((R)-1-(6-amino-9H-purin-9-yl)propan-2-yl)oxy)methyl)(((R)-1-(3-fluorophenyl)ethyl)amino)phosphoryl)ami-no)-2-methylpropanoate and propyl 2-(((S)-((((R)-1-(6-amino-9H-purin-9-yl)propan-2-yl)oxy)methyl)(((R)-1-(3-fluorophenyl)ethyl)amino)phosphoryl)ami-no)-2-methylpropanoate]	90.9%			12 nM	130 nM
CCCOC(=O)C(C)(C)NP(=O)(CO[C@H](C)Cn1cnc2c(N)ncnc21)N[C@H](C)c1ccc(C(F)(F)F)cc1 (stereo partly drawn) [Example 12B, propyl 2-(((R)-((((R)-1-(6-amino-9H-purin-9-yl)propan-2-yl)oxy)methyl)(((R)-1-(4-(trifluoromethyl)phenyl)ethyl)amino)phos-phoryl)amino)-2-methylpropanoate and propyl 2-(((S)-((((R)-1-(6-amino-9H-purin-9-yl)propan-2-yl)oxy)methyl)(((R)-1-(4-(trifluoromethyl)phenyl)ethyl)amino)phos-phoryl)amino)-2-methylpropanoate]	99.1%			2.2 nM	11 nM
CCCOC(=O)C(C)(C)NP(=O)(CO[C@H](C)Cn1cnc2c(N)ncnc21)N[C@@H](C)c1ccc(OC(F)(F)F)cc1 (stereo partly drawn) [Example 19A, propyl 2-(((R)-((((R)-1-(6-amino-9H-purin-9-yl)propan-2-yl)oxy)methyl)(((S)-1-(4-(trifluoromethoxy)phenyl)ethyl)amino)phos-phoryl)amino)-2-methylpropanoate and propyl 2-(((S)-((((R)-1-(6-amino-9H-purin-9-yl)propan-2-yl)oxy)methyl)(((S)-1-(4-(trifluoromethoxy)phenyl)ethyl)amino)phos-phoryl)amino)-2-methylpropanoate]	98.1%			2.7 nM	12 nM
propyl 2-(((R)-((((R)-1-(6-amino-9H-purin- 9-yl)propan-2-yl)oxy)methyl)(((R)-1-(4- cyanophenyl)-2,2,2- trifluoroethyl)amino)phosphoryl)amino)-2- methylpropanoate and propyl 2-(((S)-((((R)-1-(6-amino-9H-purin- 9-yl)propan-2-yl)oxy)methyl)(((R)-1-(4- cyanophenyl)-2,2,2- trifluoroethyl)amino)phosphoryl)amino)-2- methylpropanoate [Example 23A]				6.1 nM	37 nM
propyl 2-(((R)-((((R)-1-(6-amino-9H-purin- 9-yl)propan-2-yl)oxy)methyl)(((R)-1-(4- cyanophenyl)-2,2,2- trifluoroethyl)amino)phosphoryl)amino)-2- methylpropanoate and propyl 2-(((S)-((((R)-1-(6-amino-9H-purin- 9-yl)propan-2-yl)oxy)methyl)(((R)-1-(4- cyanophenyl)-2,2,2- trifluoroethyl)amino)phosphoryl)amino)-2- methylpropanoate [Example 23B]				47 nM	140 nM
propyl 2-(((R)-((((R)-1-(6-amino-9H-purin- 9-yl)propan-2-yl)oxy)methyl)(((R)-1-(p- tolyl)ethyl)amino)phosphoryl)amino)-2- methylpropanoate and propyl 2-(((S)-((((R)-1-(6-amino-9H-purin- 9-yl)propan-2-yl)oxy)methyl)(((R)-1-(p- tolyl)ethyl)amino)phosphoryl)amino)-2- methylpropanoate [Example 16A]				83 nM	440 nM
propyl 2-(((R)-((((R)-1-(6-amino-9H-purin- 9-yl)propan-2-yl)oxy)methyl)(((R)-1-(p- tolyl)ethyl)amino)phosphoryl)amino)-2- methylpropanoate and propyl 2-(((S)-((((R)-1-(6-amino-9H-purin- 9-yl)propan-2-yl)oxy)methyl)(((R)-1-(p- tolyl)ethyl)amino)phosphoryl)amino)-2- methylpropanoate [Example 16B]				4.6 nM	27 nM
propyl 2-(((R)-((((R)-1-(6-amino-9H-purin- 9-yl)propan-2-yl)oxy)methyl)(((R)-2,2,2- trifluoro-1-(p- tolyl)ethyl)amino)phosphoryl)amino)-2- methylpropanoate and propyl 2-(((S)-((((R)-1-(6-amino-9H-purin- 9-yl)propan-2-yl)oxy)methyl)(((R)-2,2,2- trifluoro-1-(p- tolyl)ethyl)amino)phosphoryl)amino)-2- methylpropanoate [Example 26B]				34 nM	200 nM
propyl 2-(((R)-((((R)-1-(6-amino-9H-purin- 9-yl)propan-2-yl)oxy)methyl)(((S)-1-(p- tolyl)ethyl)amino)phosphoryl)amino)-2- methylpropanoate and propyl 2-(((S)-((((R)-1-(6-amino-9H-purin- 9-yl)propan-2-yl)oxy)methyl)(((S)-1-(p- tolyl)ethyl)amino)phosphoryl)amino)-2- methylpropanoate [Example 18A]				13 nM	140 nM
propyl 2-(((R)-((((R)-1-(6-amino-9H-purin- 9-yl)propan-2-yl)oxy)methyl)(((S)-1-(p- tolyl)ethyl)amino)phosphoryl)amino)-2- methylpropanoate and propyl 2-(((S)-((((R)-1-(6-amino-9H-purin- 9-yl)propan-2-yl)oxy)methyl)(((S)-1-(p- tolyl)ethyl)amino)phosphoryl)amino)-2- methylpropanoate [Example 18B]				37 nM	520 nM
